How the values were obtained:
[1] = tested on: BrdU-positive cells in the sub-granular zone (SGZ) of the hippocampus; details: cited from earlier work
DRN 5-HT neurons = experiment: Reversal by acute prucalopride of the inhibition of DRN 5-HT neuron firing rate induced by i.v. SSRIs; format: in vivo, rat; details: acute intravenous administration
Excerpt: FIGS. 6A and 6B illustrate the effect of prucalopride on the inhibition of 5-HT neuronal firing rate induced by SSRIs fluxoamine and citalopram.
In FIGS. 6A and 6B, the firing activity of the 5-HT neuron is suppressed following the acute intravenous administration of the antidepressant SSRIs fluvoxamine and citalopram. This suppression of the firing activity is due to the activation of the 5-HT1A autoreceptors, subsequent to the increase of the concentration of endogenous 5-HT, following the blockade of the 5-HT reuptake sites.

CNCCC(Oc1ccc(C(F)(F)F)cc1)c1ccccc1 (stereo not shown) [fluoxetine]
increase of hippocampal neurogenesis ([1]; 14-day treatment, Malberg et al., 2000): +35% | quickest effect reported on hippocampal neurogenesis ([1]; Santarelli et al., 2003): 11 days | activity on hippocampal neurogenesis ([1]; at 5 days, Santarelli et al., 2003): inactive

COCCCC/C(=N\OCCN)c1ccc(C(F)(F)F)cc1 [fluvoxamine]
firing activity of the 5-HT neuron after SSRI (DRN 5-HT neurons): suppressed

Source: patent publication US20090170899A1, “Stimulators of 5-HT4 receptors and uses thereof” (priority 2004, published 2009)
